Assays:
HIV-1NL4-3 = assay: In vitro anti-viral assay in human PBMCs (RT activity readout); assay type: cell-based
Description: For the assay with human PBMCs, PHA stimulated cells from at least two pooled healthy were infected with HIV-1 strains in 96-well plates. Test drug dilutions, which were prepared at a 2X concentration in microtiter tubes and 100 μL of each concentration (nine total concentrations), were placed in appropriate wells using the standard format. 50 μL of a predetermined dilution of virus stock was placed in each test well (final MOI ≅ 0.1). The PBMC cultures were maintained for 7 days following infection at 37 °C, 5% CO2. After this period, cell-free supernatant samples were collected for analysis of reverse transcriptase (RT) activity. All assays were conducted in triplicates. For RT assay, a microtiter plate-based reverse transcriptase (RT) reaction was utilized (Buckheit et al., AIDS Research and Human Retroviruses 7:295–302, 1991). Tritiated thymidine triphosphate (^3H-TTP, 80 Ci/mmol, NEN) is received in 1:1 dH2O: Ethanol at 1 mCi/mL. Poly rA:oligo dT template:primer (GE Healthcare) was prepared as a stock solution by combining 150 μL poly rA (20 mg/mL) with 0.5 mL oligo dT (20 units/mL) and 5.35 mL sterile dH2O followed by aliquoting (1.0 mL) and storage at—20°C. The RT reaction buffer was prepared fresh on a daily basis and consisted of 125 μL 1.0 M EGTA, 125 μL dH2O, 125 μL 20% Triton X100, 50 μL 1.0 M Tris (pH 7.4), 50 μL 1.0 M DTT, and 40 μL 1.0 M MgCl2. The final reaction mixture was prepared by combining 1 part ^3H-TTP, 4 parts dH2O, 2.5 parts poly rA:oligo dT stock and 2.5 parts reaction buffer. Ten microliters of this reaction mixture were placed in a round bottom microtiter plate and 15 μL of virus containing supernatant is added and mixed. The plate was incubated at 37°C for 60 mins. Following incubation, the reaction volume was spotted onto DE81 filter-mats (Wallac), washed 5 times for 5 mins each in a 5% sodium phosphate buffer or 2X SSC (Life Technologies). Next they were washed 2 times for 1 min each in distilled water, 2 times for 1 min each in 70% ethanol, and then dried. Incorporated radioactivity (counts per min, CPM) was quantified using standard liquid scintillation techniques. These PBMC analysis was conducted by fee to service through Southern Research Institute (Frederick, MD, USA). The IC50 were analyzed using GraphPad Prism (Version 9) and presented as means ± S.D. of the triplicates.

HIV-1_89.6 = assay: In vitro anti-viral assay in CEMx174 cells (p24); assay type: cell-based
Description: CEMx174 cells were infected with HIV-1 primary isolate 89.6 (From infectious clone p89.6, NIH AIDS Reagent Program) at approximately at 10% of cell population determined by FACS analyses. To determine antiviral activity during virus production, STP0404 was added at concentration in the range of 0.1 nM—10 μM during media exchange at 4 hrs post-infection. DMSO was used as a negative control. Cell-free supernatants were measured for p24 antigen production, 5 days post-infection. The anti-HIV-1 efficacy of the two enantiomers of STP0404 were also determined by using the same protocol. All assays were conducted in triplicates. The IC50 values were computed using GraphPad Prism (Version 9) and presented as means ± S.D. of the triplicates. For SIVmac239, CEMx174 cells were infected with viral supernatant containing SIVmac293 at 50,000 TCID50/mL (kind gift from Dr. G. Silvestri, Emory Yerkes National Primate Research Center) with 100 μL/10^6 cells at varying concentrations of STP0404, BI224436, and Raltegravir, and the same above protocol was followed except for that p27 capsid antigen content was measured daily for 5 days post infection.

[1] = Safety pharmacology: effects on the central nervous system in rats; assay type: in vivo; conditions: single oral 100, 300 and 600 mg/kg
Description: Effects on the Respiratory System in Rats (Study no. YL18404). Four groups of eight male rats were given a single oral administration of STP0404 at doses of 100, 300 and 600 mg/kg. STP0404 was administered as a suspension in 0.5% MC in a volume of 10 mL/kg. […] Measurements were conducted at pre-dosing and 0.5, 1, 3, 6 12 and 24 hrs post-dosing, and respiratory rate, tidal volume and minute volume were investigated (INA Research, Japan). Effects on the Central Nervous System in Rats (Study no. YL18405). Four groups of six male rats were given a single oral administration of STP0404 at doses of 0 (vehicle), 100, 300 and 600 mg/kg. The test article was administered as a suspension in 0.5% MC in a volume of 10 mL/kg. […] Blinded observations were conducted pre-dosing and 0.5, 1, 3, 6, 12 and 24 hrs post-dosing on rats body temperature, pupil size, landing foot-splay and grip strength in functional observational battery. Effects on the Cardiovascular System in Dogs (Study no. YL18406). STP0404 at dose levels of 30, 60 and 90 mg/kg were administered orally (by capsules) to four male Beagle dogs in a design with 7-day intervals between doses. Heart rate, blood pressure (systolic, diastolic and mean) and electrocardiographic (ECG) parameters (PR, QT and QTc intervals and QRS duration) were evaluated at pre-dosing and 0.5, 1, 2, 4, 8 and 24 hrs post-dosing. […]

[2] = Microsomal stability determination; assay type: in vitro ADME, animal and human; conditions: human, liver microsomes; all tested species; read-out: microsomal stability T1/2
Description: A liver microsome (LM) stability assay was […] of incubation at 0, 10, 20, 30 and 60 min with a […] STP0404 initial concentration. All plates were shaken and centrifuged at 3200 x g for 20 mins. Then 100 μL of supernatant was taken from each well and diluted with 300 μL pure water before analyzed by LC/MS/MS. Animal and human liver microsomes were purchased from Wuxi AppTec, Xenotech or Corning and stored in a freezer (lower than -60°C) before use (Wuxi AppTec, China).

[3] = Human immunodeficiency virus 1, CEMx174

For `Cc1nc2c(c(C)c(C)n2Cc2cnn(C)c2)c(-c2ccc(Cl)cc2)c1[C@H](OC(C)(C)C)C(=O)O` [STP0404], the IC50 (HIV-1NL4-3; Human immunodeficiency virus 1, NL43, PBMC) was 0.41 ± 0.43 nM, the “TI (TC50 / IC50)” value (HIV-1NL4-3; human PBMCs, NL4-3, minimal TI from IC50 and 10 μM) was >24,000 and the “TI (TC50 / IC50)” value (HIV-1_89.6; HIV-1 89.6 / CEMx174 cells) was > 7,140. The IC50 (HIV-1_89.6; [3]) was 1.4 nM, the IC90 (HIV-1_89.6; [3]) was 21 nM and the “safety pharmacology concerns, central nervous system” value [1] was “did not induce any safety pharmacology concerns”. The half-life at 1 μL [2] was > 2.22 h.

From publication PMC8297771 (PLoS Pathogens, 2021)
